These are literature values, as cited in patent publication US5831002A, “Antitumor peptides” (BASF Aktiengesellschaft, priority 1995, dated 1998).

For the series the following is noted: background, literature; cited from earlier work.

With Dolastatin-15, the “cell growth inhibitory activity” value is on record as “potent cell growth inhibitory activity”.

In the case of Dolastatin-10, the “cell growth inhibitory activity” value is listed as “potent cell growth inhibitory activity”.
